In patent US7528123B1, “Estrogenic estra-1,3,5(10)-trienes with differential effects on the alpha and beta estrogen receptors, having a linear hydrocarbon chain of from 5-9 carbon atoms in position 11” (N.V. Organon, priority 1998, dated 2009):

Assays:
[1] = biological target: T1, human estrogen receptor α (Homo sapiens, UniProt P03372); test: CHO-ERα bioassay: luciferase transactivation, estrogenic and anti-estrogenic activity; format: cell-based; conditions: agonist or antagonist in recombinant CHO cells with hERα, rat oxytocin promoter, luciferase reporter; standard Org 2317 (estradiol)
T1 construct: expressed in transfected cells; host or cells: CHO cells (CHO-ERRO 2B1-1E9), stably co-transfected with rat oxytocin promoter-luciferase reporter
T1 sequence (P03372 1-595): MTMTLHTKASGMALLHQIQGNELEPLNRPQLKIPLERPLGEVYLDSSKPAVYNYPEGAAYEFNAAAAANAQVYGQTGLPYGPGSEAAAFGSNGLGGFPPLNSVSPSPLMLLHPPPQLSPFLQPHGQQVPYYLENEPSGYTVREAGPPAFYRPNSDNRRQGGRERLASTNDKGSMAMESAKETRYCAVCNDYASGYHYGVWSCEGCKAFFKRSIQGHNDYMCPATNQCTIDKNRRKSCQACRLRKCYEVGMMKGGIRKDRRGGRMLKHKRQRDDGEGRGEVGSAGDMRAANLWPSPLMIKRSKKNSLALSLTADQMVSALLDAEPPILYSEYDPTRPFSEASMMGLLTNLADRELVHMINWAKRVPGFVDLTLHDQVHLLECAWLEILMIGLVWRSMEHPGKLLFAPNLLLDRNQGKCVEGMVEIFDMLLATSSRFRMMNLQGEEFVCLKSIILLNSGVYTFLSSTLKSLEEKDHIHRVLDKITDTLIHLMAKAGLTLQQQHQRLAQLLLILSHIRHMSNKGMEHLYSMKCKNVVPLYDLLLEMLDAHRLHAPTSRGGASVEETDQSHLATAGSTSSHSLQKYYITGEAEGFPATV
Description: (§1) Test medium: Intact recombinant CHO cells stably co-transfected with the rat oxytocin promoter and the luciferase reporter gene and either the human estrogen receptor β or the human estrogen receptor α. Both cell lines have been produced within the Department of Biotechnology and Biochemistry (BBC) (N. V. Organon) and are known under the name CHO-ERRO 2B1-1E9 for CHO-ERα and CHO-ERβ RO LUC for CHO-ERβ. The estrogenic activity of compounds is determined in an in vitro bioassay (CHO-ERα) with recombinant Chinese hamster ovary (CHO) cells stably co-transfected with the human estrogen α (hERα), the rat oxytocin promoter (RO) and the luciferase reporter gene (LUC). The estrogenic activity (potency ratio) of a test compound to promote the transactivation of the enzyme luciferase mediated via the estrogen receptor α is compared with the standard estrogen Org 2317 (estradiol 1,3,5 (10)-estratriene-3,17β-diol). The estrogenic activity (potency ratio) of a test compound to promote the transactivation of the enzyme luciferase mediated via the estrogen receptor β is determined in the same fashion but using recombinant Chinese hamster ovary (CHO) cells stably co-transfected with the human estrogen β (hERβ) (bioassay CHO-ERβ). The anti-estrogenic activity of compounds is determined in the same bioassays (CHO-ERα and CHO-ERβ), but now the anti-ERα and anti-ERβ activity (potency ratio) of a test compound to inhibit the transactivation of the enzyme luciferase mediated via ERα or ERβ by Org 2317 (estradiol 1,3,5 (10)-estratriene-3,17β-diol) is measured.

[2] = biological target: T2, human estrogen receptor β (Homo sapiens, UniProt Q92731); test: CHO-ERβ bioassay: luciferase transactivation, estrogenic and anti-estrogenic activity; format: cell-based; conditions: agonist or antagonist in recombinant CHO cells with hERβ, rat oxytocin promoter, luciferase reporter; standard Org 2317 (estradiol)
T2 construct: expressed in transfected cells; host or cells: CHO cells (CHO-ERβ RO LUC), stably co-transfected with rat oxytocin promoter-luciferase reporter
T2 sequence (Q92731 whole entry): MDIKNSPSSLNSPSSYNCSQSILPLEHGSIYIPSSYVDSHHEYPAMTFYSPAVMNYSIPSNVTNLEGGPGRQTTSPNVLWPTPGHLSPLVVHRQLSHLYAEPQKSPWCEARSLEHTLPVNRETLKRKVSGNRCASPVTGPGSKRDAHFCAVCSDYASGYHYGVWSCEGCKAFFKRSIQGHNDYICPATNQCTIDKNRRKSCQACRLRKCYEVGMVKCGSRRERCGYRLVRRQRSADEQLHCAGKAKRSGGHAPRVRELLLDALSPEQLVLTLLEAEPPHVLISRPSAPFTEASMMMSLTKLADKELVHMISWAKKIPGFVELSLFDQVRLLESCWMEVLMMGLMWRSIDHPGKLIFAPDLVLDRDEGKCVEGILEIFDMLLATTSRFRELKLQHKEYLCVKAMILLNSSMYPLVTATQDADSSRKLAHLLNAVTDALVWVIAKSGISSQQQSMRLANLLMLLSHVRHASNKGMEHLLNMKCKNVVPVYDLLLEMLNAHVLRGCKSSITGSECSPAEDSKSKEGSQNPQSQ
Description: as §1

Compound	ER-α [1]	ER-β [2]
C#CCC[C@H]1C[C@]2(C)[C@@H](O)CC[C@H]2[C@@H]2CCc3cc(O)ccc3[C@@H]12 [Compound 4]	agonist	agonist
C=CCCC[C@H]1C[C@]2(C)[C@@H](O)CC[C@H]2[C@@H]2CCc3cc(O)ccc3[C@@H]12 [Compound 3]	agonist	antagonist
CC#CCC[C@H]1C[C@]2(C)[C@@H](O)CC[C@H]2[C@@H]2CCc3cc(O)ccc3C12 (stereo partly shown) [Compound 5]	agonist	antagonist
CCC[C@H]1C[C@]2(C)[C@@H](O)CC[C@H]2[C@@H]2CCc3cc(O)ccc3[C@@H]12 [Compound 9]	agonist	agonist
CCCC[C@H]1C[C@]2(C)[C@@H](O)CC[C@H]2[C@@H]2CCc3cc(O)ccc3[C@@H]12 [Compound 10]	agonist	agonist
C[C@]12C[C@H](CC=C3CC3)[C@@H]3c4ccc(O)cc4CC[C@H]3[C@@H]1CC[C@@H]2O [Compound 7]	agonist	agonist
C=CC[C@H]1C[C@]2(C)[C@@H](O)CC[C@H]2[C@@H]2CCc3cc(O)ccc3[C@@H]12 [Compound 1]	agonist	agonist
C#CCCC[C@H]1C[C@]2(C)[C@@H](O)CC[C@H]2[C@@H]2CCc3cc(O)ccc3[C@@H]12 [Compound 6]	agonist	antagonist
C=CCC[C@H]1C[C@]2(C)[C@@H](O)CC[C@H]2[C@@H]2CCc3cc(O)ccc3[C@@H]12 [Compound 2]	agonist	agonist
CCCCC[C@H]1C[C@]2(C)[C@@H](O)CC[C@H]2[C@@H]2CCc3cc(O)ccc3[C@@H]12 [Compound 11]	agonist	antagonist
C[C@]12C[C@H](CCC=C3CC3)[C@@H]3c4ccc(O)cc4CC[C@H]3[C@@H]1CC[C@@H]2O [Compound 8]	agonist	antagonist
